From article PMC11327210, “A first-in-human phase I trial of daily oral zelenirstat, a N-myristoyltransferase inhibitor, in patients with advanced solid tumors and relapsed/refractory B-cell lymphomas” (Investigational New Drugs, 2024)

Columns and labels:
[1] = test system: patients with advanced solid tumors and relapsed/refractory (R/R) B-cell lymphomas; test: Phase I dose escalation: safety, DLT, MTD/RP2D (NCI-CTCAE v5.0); assay type: in vivo; conditions: for Grade ≥ 3 treatment-related adverse events: Hypophosphatemia / Grade ≥ 3 treatment-related adverse events: Metabolism and nutrition disorders / Grade ≥ 3 treatment-related adverse events: Nausea / No. of pts with Gr ≥ 3 TRAEs: daily oral
Source text: A standard 3 + 3 design was used to assess for MTD and establish RP2D according to a pre-determined dose-escalation schema (Table 1). There was no intra-patient dose escalation. The MTD was defined as the dose level below the cohort in which 2 or more patients experienced a first cycle, zelenirstat attributable, dose-limiting toxicity (DLT), and the MTD required confirmation in at least 6 patients.
DLT was defined as any of the following: Grade (Gr) 4 thrombocytopenia, Gr 3 thrombocytopenia with bleeding, Gr 4 neutropenia ≥ 7 days, febrile neutropenia, clinically significant ≥ Gr 3 non-hematologic toxicity, or any significant toxicity warranting a withhold of zelenirstat. […] Toxicity was graded according to the National Cancer Institute Common Toxicity Criteria for Adverse Events (NCI-CTCAE) version 5.0.
For dose escalation, patients received daily oral zelenirstat on 28-day cycles. It was administered as 10 mg and 70 mg capsules, with instructions to take on an empty stomach each morning with 250 ml of tap water. Patients received zelenirstat until progressive disease, unacceptable toxicity, or withdrawal of consent.
Baseline imaging and hematology and blood chemistry were obtained within 4 weeks and 1 week of study entry, respectively. Baseline screening included a complete medical history, physical examination, assessment of ECOG performance status, and body weight. CT imaging was used for advanced solid tumors and B-cell NHL; PET-CT was optional for B-cell NHL. Weekly complete blood counts with white blood cell differentiation and blood chemistries were drawn for the first cycle, biweekly for cycle 2, and then prior to each 28-day cycle. Adverse events were evaluated weekly in the first cycle, biweekly for cycle 2, and before each subsequent cycle using the NCI-CTCAE version 5.0.

[2] = test system: advanced solid tumors and relapsed/refractory (R/R) B-cell lymphomas; test: Anticancer activity in phase I patients (RECIST 1.1 / Lugano, Kaplan-Meier); assay type: in vivo, human; conditions: for No. of patients with best response SD: evaluable patients n = 24
Description: Tumor response assessments using CT imaging were performed every two cycles. RECIST 1.1 [11] or the Lugano Response Criteria for Lymphoma was used to determine tumor response and disease progression. For B-cell NHL patients with PET-CT at baseline, PET-CT was repeated after the sixth cycle to confirm complete response or disease progression. Patient archival specimens and blood samples were submitted for exploratory molecular analyses. Descriptive statistics were used for demographic, safety, and efficacy data. Categorical data were summarized using frequency counts and percentages. Time-to-event variables were analyzed by Kaplan-Meier methods. Weighted trajectory analysis for health outcomes used the Chauhan methodology.

[3] = test system: cultured human cancer cells; set-up: method as in PMID 33093447; conditions: wide variety of cultured human cancer cells; cited from earlier work
[4] = test system: patient derived xenograft models of refractory DLBCL; set-up: method as in PMID 33093447; conditions: cited from earlier work
[5] = test system: cell line and patient derived xenograft models of AML; set-up: method as in doi:10.1182/blood-2022-170544; conditions: cited from earlier work
[6] = set-up: method as in Pacylex, data on file; conditions: preclinical models; ref Pacylex, data on file; cited from earlier work
CYP3A4 = test system: CYP3A4; set-up: method as in Pacylex, data on file; conditions: preclinical models; ref Pacylex, data on file; cited from earlier work
off-target kinase = test system: off-target kinase; set-up: method as in doi:10.1182/blood-2019-124934; conditions: cited from earlier work
[7] = test system: ADP-ribosylation factor 6 (ARF6); set-up: method as in Pacylex, data on file; conditions: cultured colon cancer cells; ref Pacylex, data on file; cited from earlier work
clinical = conditions: human, in vivo; for AUC(0-t): AUC0 − 24 (h*ng/mL) (mean, SD); for Cmax: Cmax (ng/ml) (mean, SD)
Description: (§1) Peripheral blood samples were collected over six time points in the first 8 h of Cycle 1, Day 1 (C1D1), and again on C1D15. Pre-treatment Day 1 levels were obtained with every subsequent cycle.

rats = conditions: rat, in vivo; cited from earlier work
dogs = conditions: dog, in vivo; cited from earlier work
[8] = Plasma pharmacokinetics in phase I patients (UPLC-MS/MS); conditions: beyond Day 15
Description: as §1

[9] = oral once daily, 28-day cycles, patients
[10] = MTD cohort 210 mg daily (n = 7) vs lower dose cohorts (n = 17)

Cc1c(NS(=O)(=O)c2c(Cl)cc(-c3ccnc(N4CCNCC4)c3)cc2Cl)c(CC(C)C)nn1C [zelenirstat]
Grade ≥ 3 treatment-related adverse events: Hypophosphatemia ([1]; 20 mg (N = 3)): 0 n, %
Grade ≥ 3 treatment-related adverse events: Metabolism and nutrition disorders ([1]; 20 mg (N = 3)): 0 n, %
Grade ≥ 3 treatment-related adverse events: Nausea ([1]; 20 mg (N = 3)): 0 n, %
No. of pts with Gr ≥ 3 TRAEs ([1]; 20 mg (N = 3)): 0 n, %
Grade ≥ 3 treatment-related adverse events: Hypophosphatemia ([1]; 40 mg (N = 3)): 0 n, %
Grade ≥ 3 treatment-related adverse events: Metabolism and nutrition disorders ([1]; 40 mg (N = 3)): 0 n, %
Grade ≥ 3 treatment-related adverse events: Nausea ([1]; 40 mg (N = 3)): 0 n, %
No. of pts with Gr ≥ 3 TRAEs ([1]; 40 mg (N = 3)): 0 n, %
Grade ≥ 3 treatment-related adverse events: Hypophosphatemia ([1]; 70 mg (N = 3)): 0 n, %
Grade ≥ 3 treatment-related adverse events: Metabolism and nutrition disorders ([1]; 70 mg (N = 3)): 0 n, %
Grade ≥ 3 treatment-related adverse events: Nausea ([1]; 70 mg (N = 3)): 0 n, %
No. of pts with Gr ≥ 3 TRAEs ([1]; 70 mg (N = 3)): 1 (33) n, %
Grade ≥ 3 treatment-related adverse events: Hypophosphatemia ([1]; 100 mg (N = 5)): 0 n, %
Grade ≥ 3 treatment-related adverse events: Metabolism and nutrition disorders ([1]; 100 mg (N = 5)): 0 n, %
Grade ≥ 3 treatment-related adverse events: Nausea ([1]; 100 mg (N = 5)): 0 n, %
No. of pts with Gr ≥ 3 TRAEs ([1]; 100 mg (N = 5)): 0 n, %
Grade ≥ 3 treatment-related adverse events: Hypophosphatemia ([1]; 140 mg (N = 3)): 0 n, %
Grade ≥ 3 treatment-related adverse events: Metabolism and nutrition disorders ([1]; 140 mg (N = 3)): 0 n, %
Grade ≥ 3 treatment-related adverse events: Nausea ([1]; 140 mg (N = 3)): 0 n, %
No. of pts with Gr ≥ 3 TRAEs ([1]; 140 mg (N = 3)): 0 n, %
Grade ≥ 3 treatment-related adverse events: Hypophosphatemia ([1]; 210 mg (N = 7)): 0 n, %
Grade ≥ 3 treatment-related adverse events: Metabolism and nutrition disorders ([1]; 210 mg (N = 7)): 0 n, %
Grade ≥ 3 treatment-related adverse events: Nausea ([1]; 210 mg (N = 7)): 0 n, %
No. of pts with Gr ≥ 3 TRAEs ([1]; 210 mg (N = 7)): 0 n, %
Grade ≥ 3 treatment-related adverse events: Hypophosphatemia ([1]; 280 mg (N = 5)): 1 (20) n, %
Grade ≥ 3 treatment-related adverse events: Metabolism and nutrition disorders ([1]; 280 mg (N = 5)): 1 (20) n, %
Grade ≥ 3 treatment-related adverse events: Nausea ([1]; 280 mg (N = 5)): 1 (20) n, %
No. of pts with Gr ≥ 3 TRAEs ([1]; 280 mg (N = 5)): 4 (80) n, %
evaluable patients with first cycle dose-limiting gastrointestinal toxicities ([1]; 280 mg daily cohort): Three
neuropathy ([1]; dose cohorts up to and including 210 mg): No neuropathy was reported
Gr 2 thrombocytopenia, patients ([1]; dose cohorts up to and including 210 mg, resolved despite continuation at full dose): 12%
maximum tolerated dose (MTD) [1, 9]: 210 mg
recommended phase 2 dose (RP2D) [1, 9]: 210 mg
drug-induced QT prolongation ([1]; pre- and post-dose ECG assessments, patients): no evidence of drug-induced QT prolongation
first cycle (or any cycle) DLTs ([1]; six evaluable patients, 210 mg per day cohort): absence of first cycle (or any cycle) DLTs
Overall Survival (Kaplan-Meier) [2, 10]: statistically significantly longer overall survival
Progression-Free Survival (Kaplan-Meier) [2, 10]: statistically significantly longer PFS
objective responses ([2]; all dose cohorts): No objective responses
No. of patients with best response SD ([2]; dose level 2: 40 mg, pancreatic adenocarcinoma): 1
No. of patients with best response SD ([2]; dose level 5: 140 mg, CRC): 1
No. of patients with best response SD ([2]; dose level 6: 210 mg, CRC (2), ovarian (2), appendiceal carcinoma): 5
No. of patients with best response SD ([2]; dose level 7: 280 mg, after DLT modified to 210 mg daily, bladder): 1
Stable disease as best response, patients ([2]; eight of 29 patients, all dose cohorts): 28%
reduction in serum carcinoembryonic antigen (CEA) level ([2]; one patient, metastatic colon adenocarcinoma, 210 mg): 48%
duration on zelenirstat ([2]; one patient, metastatic colon adenocarcinoma, 210 mg, SD, continuing): ≥ 420 days
reduction in sum of longest dimensions of the target lesions ([2]; one patient, metastatic colon adenocarcinoma, 210 mg, ongoing): 13%
reduction in cancer antigen 125 (CA125) ([2]; one patient, refractory ovarian cancer, 210 mg): 20%
effect on cultured human cancer cells [3]: cytotoxic or cytostatic
xenograft tumor response [4]: profound tumor regression and complete remissions
xenograft tumor response [5]: similarly profound remissions
plasma protein binding [6]: highly bound to plasma protein
metabolism (CYP3A4): metabolized in the liver primarily by CYP3A4
off-target kinase inhibition (off-target kinase): no relevant off-target kinase inhibition
myristoylation of ARF6 [7]: inhibits the myristoylation
half-life (clinical; half-life values across the dose cohorts): 7.67 to 12 h
Tmax (clinical; maximum Tmax value in patients taking PPI): ~8 h
half-life (clinical; mean terminal half-life across the dose cohorts): 6.7 to 9.5 h
Tmax (clinical; median Tmax range in patients taking proton pump inhibitors (PPI)): 1 to 6 h
AUC(0-t) (clinical; po, 20 mg): 1580 ng·h/mL
Cmax (clinical; po, 20 mg): 359 ng/mL
Tmax (clinical; po, 20 mg, Tmax (h) (median, range)): 2 h
half-life (clinical; po, 20 mg, t1/2 (h) (mean, SD)): 6.7 h
AUC(0-t) (clinical; po, 40 mg): 4820 ng·h/mL
Cmax (clinical; po, 40 mg): 848 ng/mL
half-life (clinical; po, 40 mg, t1/2 (h) (mean, SD)): 9.2 h
AUC(0-t) (clinical; po, 70 mg): 5650 ng·h/mL
Cmax (clinical; po, 70 mg): 665 ng/mL
Tmax (clinical; po, 70 mg, Tmax (h) (median, range)): 3.9 h
half-life (clinical; po, 70 mg, t1/2 (h) (mean, SD)): 9.5 h
AUC(0-t) (clinical; po, 100 mg): 24700 ng·h/mL
Cmax (clinical; po, 100 mg): 2300 ng/mL
Tmax (clinical; po, 100 mg, Tmax (h) (median, range)): 4 h
half-life (clinical; po, 100 mg, t1/2 (h) (mean, SD)): 12 h
AUC(0-t) (clinical; po, 140 mg): 11900 ng·h/mL
Cmax (clinical; po, 140 mg): 1770 ng/mL
Tmax (clinical; po, 140 mg, Tmax (h) (median, range)): 1 h
half-life (clinical; po, 140 mg, t1/2 (h) (mean, SD)): 7.2 h
AUC(0-t) (clinical; po, 210 mg): 14700 ng·h/mL
Cmax (clinical; po, 210 mg): 1770 ng/mL
Tmax (clinical; po, 210 mg, Tmax (h) (median, range)): 3 h
half-life (clinical; po, 210 mg, t1/2 (h) (mean, SD)): 7.8 h
Tmax (clinical; po, median Tmax values across the dose cohorts): 1 to 4 h
half-life (clinical; po, terminal half-lives, average): 10 h
Tmax (clinical; po, time of peak plasma concentrations): 2 h
toxicities in formal toxicologic evaluation (rats): acute gastrointestinal and hematologic toxicities
toxicities in formal toxicologic evaluation (dogs): acute gastrointestinal and hematologic toxicities
accumulation over multiple cycles (pre-dose concentrations) [8]: no accumulation was apparent beyond Day 15
